# According to patent publication US11771685B2, “Compounds for the treatment of neurological or mitochondrial diseases” (MUSC FOUNDATION FOR RESEARCH DEVELOPMENT, priority 2018, dated 2023):
# Assays:
# [1] = tested on: HT22 cells; test: HT22 oxytosis (glutamate-induced cell death) neuroprotection assay; format: cell-based, mouse; conditions: 10 mM Glu; for EC50: Mus musculus
# Procedure: The HT22 murine hippocampal cell system was chosen as an initial phenotypic screen for neuroprotective efficacy (Andreux et al., 2013; Andreux et al., 2014; Ohlow et al., 2017; Schubert and Maher, 2012). HT22 cells exposed to high extracellular Glu ([…]) undergo oxytosis, a non-apoptotic programmed cell death involving glutathione (GSH) depletion followed by ROS accumulation, oxidative damage, and a cytotoxic signaling cascade (Tan et al., 2001). Glu blocks the −xC cystine antiporter, causing (Tan et al., 2001) cells to accumulate severe oxidative stress, mitochondrial depolarization, disrupted mitochondrial morphology, and Ca^2+ influx (Tan et al., 2001; Yang et al., 2011; Cheng et al., 2013—cellular events that may occur in neurological diseases, including epilepsy. Thus, the immortalized HT22 cell line is a well-established model of neuronal oxidative stress (Sagara and Schubert, 1998; Matsumoto et al., 1996; Albrecht et al., 2010; Ha and Park, 2006; van Leyen et al., 2005; Tobaben et al., 2011), and a verified model of neurodegeneration to screen for potential neuroprotective drugs (Albrecht et al., 2010; van Leyen et al., 2008; Lewerenz et al., 2009; Lewerenz et al., 2003).
# Consistent with that work, most of the 2-amino compounds achieved protection of HT22 cells against glutamate-induced oxytosis in the nM to μM range. […] Neuroprotection based on relative cell viability compared to +Glu and −Glu control cells was measured.
# The HT22 neuronal cell line is a subclone of HT4, derived from the mouse hippocampus (Morimoto and Koshland, 1990). […] The HT22 cells used in this study were kindly provided by Dr. David Schubert (The Salk Institute for Biological Studies, La Jolla, CA, USA). The cells were grown in Dulbecco's Modified Eagle's Medium (DMEM/high glucose) supplemented with 10% fetal bovine serum (Hyclone) and 5 mL of antibiotic-antimycotic (Amphotericin B, Penicillin, and Streptomycin; Invitrogen) at 37° C. in 5% CO2.
# HT-22 cells were seeded onto 96-well plates at 2.5×10^3 cells per well in 75 μL of medium and maintained at 37° C. in 5% CO2 overnight prior to the initiation of experimental treatments. For glutamate toxicity testing, cells were subsequently treated with 25 μL of medium containing glutamate (monosodium glutamate, Sigma, 1 M stock concentration in media, to achieve a final concentration of 10 mM) plus compound (stock in DMSO) and maintained at 37° C. in 5% CO2 for 24 hr. CellTiter-Blue® (resazurin cell viability assay reagent) was then added to each well at a final concentration of 0.125 mg/mL. The mixture was allowed to incubate for 2-4 hr until sufficient color change occurred. Cell viability was measured as a function of resorufin fluorescence intensity using a Tecan M200 Pro spectrophotometer, 560 nm/590 nm (excitation/emission). Cell viability was calculated as a percentage compared with untreated controls. EC50s were determined using GraphPad Prism's “log(inhibitor) vs. normalized response-Variable slope” function. Morphology of HT22 cells following treatments was determined by phase-contrast microscopy.
# (§1) Statistical analyses were performed with GraphPad Prism 6 software. For the in vitro HT22 oxytosis assay, dose-response data were fit using GraphPad Prism's log(inhibitor) vs normalized response-variable slope parameters to determine EC50 values and 95% confidence intervals. For the zebrafish locomotive anti-seizure activity data, multiple comparisons were made using a one-way analysis of variance (ANOVA) with a Kruskal-Wallis Test, followed by the Dunn's Method to determine significant differences between all pairs or between control and experimental groups using the Dunn Method for Joint Ranking. Differences were considered statistically significant when p<0.05. Data from zebrafish experiments are represented as scatter dot plots of individual measurements, with means±standard deviation indicated by bars.
# [2] = tested on: Zebrafish larvae; test: In vivo toxicology in zebrafish larvae; conditions: for overt toxicity observation / concentration lethal/toxic at 24 hr: 7 dpf larvae; for overt toxicity observation: 5-20 μM, observed 1, 5 and 24 hr
# Procedure: Zebrafish larvae, 7 days post-fertilization (dpf), were exposed to compounds at 20, 15, 10, and 5 μM, six larvae per compound. Animals were observed 1, 5, and 24 hr after dosing for overt toxicity (altered survival, morbidity, morphological deformity). Heart rate, behavior, and startle response were monitored at each time point.
# Zebrafish (AB strain) were obtained from the Zebrafish International Resource Center (supported by P40 RR012546 from NIH—NCRR). Zebrafish were maintained and crossed according to standard methods (Westerfield, 2000). Fertilized eggs were collected and placed in E3 embryo medium and positioned in an incubator set at 28.5° C. with a 14/10-hr light/dark cycle (Kimmel et al., 1995). To determine the lethal dose of each compound, 96-well plates containing one zebrafish (7 days post-fertilization, dpf) per well in 100 μL of tank water were used. 100 μL of each compound (0.5-15 μM) was added to each well for 12 animals (one row) for a final volume of 200 μL. One row of larvae was used as dimethyl sulfoxide (DMSO)-only controls. […] All zebrafish studies were approved by the Medical University of South Carolina Institutional Animal Care and Use Committee (#180278) and performed in accordance with the guidelines.
# Using a 96-well plate, 7 dpf zebrafish were placed one per well with 100 μL of tank water. 100 μL of each compound was then added to each well for 12 animals (one row) for a final volume of 200 μL. One row of zebrafish larvae was used as DMSO only controls.
# [3] = tested on: PTZ-induced seizure activity in zebrafish larvae; test: Zebrafish PTZ-induced seizure model; format: in vivo; conditions: Danio rerio; for minimal effective concentration: 7 dpf larvae, 1 hr pre-treatment, 10 mM PTZ, read-out: Anti-seizure activity: lowest tested dose with significant difference vs PTZ-only group
# Procedure: The zebrafish PTZ-induced seizure model was used to determine the most promising compounds' in vivo efficacy. Zebrafish larvae (7 dpf) were treated with the compound for 1 hr prior to inducing seizures with PTZ. As established by previous larval zebrafish anti-seizure studies (Rahn et al., 2014; Hansen et al., 2004; Baraban et al., 2005), total distance traveled by each fish after seizure induction was measured and used as a proxy for seizure activity. Following collection of locomotor data, observation of a startle response and visual inspection for abnormal morphology confirmed that alterations in swim activity were not caused by compound toxicity.
# We induced seizures in 7 dpf zebrafish larvae by the addition of […] PTZ as originally developed by Baraban et al., 2005. In a 48-well plate, one 7-dpf zebrafish was added per well. Larvae were dosed with each compound at a sub-lethal dose 1 hr prior to PTZ treatment. Two control rows were included with each experiment—tank water only control and PTZ only. Seizures were induced by adding PTZ to wells to yield a final concentration of 10 mM. After 5 min, the plate was transferred to the Daniovision instrument (Noldus Information Technology) and the chamber light was turned on. After 2 min, MediaRecorder (Noldus) was used to record video for 15 min. A small number of videos were acquired at 25 frames per second, but the majority of data were acquired at 60 frames per second. […] Ethovision XT software (Noldus) was used to track the fish movement from the video images in order to calculate the total distance traveled over 15 min. All experimental comparisons were made between animals from the same clutch.
# as §1
# [4] = HT-22, 24 h, HT22 cells, 24 hr, 95% CI in parentheses
# [5] = read-out: reduction of PTZ-induced locomotor activity
SMILES,"EC50 [1, 4] [nM]","EC50 ([1]; HT-22, HT22 cells) [nM]",overt toxicity observation [2],minimal effective concentration [3] [µM],further results
"CC#CCCNC1=CC(=O)c2ccccc2C1=O [Compound 15, 2-(Pent-3-yn-1-ylamino)naphthalene-1,4-dione]",2910,> 2000,acutely lethal to most fish at the lowest concentration after 1 hr,–,–
"C#CC(C)NC1=CC(=O)c2ccccc2C1=O (racemic) [Compound 19, Rac-2-(but-3-yn-2-ylamino)naphthalene-1,4-dione]",2140,~1500,–,> 10,"fish dead ([2]; 10 μM, 5 hr): ⅙; toxic concentration ([2]; AB, zebrafish, in vivo, 5 hr): ≥ 10 µM"
"CN(C)CC#CCNC1=CC(=O)c2ccccc2C1=O [Compound 7, 2-((4-(Dimethylamino)but-2-yn-1-yl)amino)naphthalene-1,4-dione]",–,–,lethal at most concentrations,–,HT22 protection ([1]; HT22 cells): poor protection
"CCCC#CCNC1=CC(=O)c2ccccc2C1=O [Compound 4, 2-(Hex-2-yn-1-ylamino)naphthalene-1,4-dione]",989,–,–,> 20,"inhibition in vivo at 10 µM [3, 5]: ~80%; inhibition in vivo at 20 µM ([3]; 20 μM, read-out: reduction of PTZ-induced locomotor activity): ~80%; fish dead ([2]; 10 μM, 24 hr): ⅙"
"CCCCC#CCNC1=CC(=O)c2ccccc2C1=O [Compound 5, 2-(Hept-2-yn-1-ylamino)naphthalene-1,4-dione]",1570,–,–,≤ 5,"inhibition in vivo at 5 µM ([3]; 5 μM, read-out: reduction of PTZ-induced locomotor activity): 84%; inhibition in vivo at 10 µM [3, 5]: 77%; concentration lethal/toxic at 24 hr ([2]; 24 hr): 20 µM"
"CS(=O)(=O)Nc1cccc(C#CCNC2=CC(=O)c3ccccc3C2=O)c1 [Compound 14, N-(3-(3-((1,4-dioxo-1,4-dihydronaphthalen-2-yl)amino)prop-1-yn-1-yl)phenyl)methanesulfonamide]",1940,~2000,–,–,concentration lethal to all fish ([2]; after 5 hr): 10 µM
"CCC#CCCNC1=CC(=O)c2ccccc2C1=O [Compound 16, 2-(Hex-3-yn-1-ylamino)naphthalene-1,4-dione]",5600,> 2000,acutely lethal to most fish at the lowest concentration after 1 hr,–,–
"CC#CCNC1=CC(=O)c2ccccc2C1=O [Compound 2, 2-(But-2-yn-1-ylamino)naphthalene-1,4-dione]",1220,–,–,> 20,"inhibition in vivo at 40 µM ([3]; 40 μM, read-out: reduction of PTZ-induced locomotor activity): 89%; fish dead ([2]; 5 μM, 24 hr): ⅚; concentration lethal/toxic at 24 hr ([2]; 24 hr): ≥ 10 µM"
